Experiments:
Type in all cases: functional
SNB-19 = assay: Antitumor activity against human SNB19 cells
SK-OV-3 = assay: Antitumor activity against human SKOV3 cells
U-251 = assay: Antitumor activity against human U251 cells
RXF 393 = assay: Antitumor activity against human RXF393 cells
UACC-62 = assay: Antitumor activity against human UACC62 cells
ACHN = assay: Antitumor activity against human ACHN cells
NCI-H23 = assay: Antitumor activity against human NCI-H23 cells
BT-549 = assay: Antitumor activity against human BT549 cells
SF-539 = assay: Antitumor activity against human SF539 cells
SF-295 = assay: Antitumor activity against human SF295 cells
SN12C = assay: Antitumor activity against human SN12C cells
MDA-N = assay: Antitumor activity against human MDA-N cells
HCT-116 = assay: Antitumor activity against human HCT116 cells
KM12 = assay: Antitumor activity against human KM12 cells
Malme-3M = assay: Antitumor activity against human MALME-3M cells
A498 = assay: Antitumor activity against human A498 cells
HCC 2998 = assay: Antitumor activity against human HCC2998 cells
HT-29 = assay: Antitumor activity against human HT-29 cells
DU-145 = assay: Antitumor activity against human DU145 cells
HOP-62 = assay: Antitumor activity against human HOP62 cells
COLO 205 = assay: Antitumor activity against human COLO205 cells
HOP-92 = assay: Antitumor activity against human HOP92 cells
K562 = assay: Antitumor activity against human K562 cells
OVCAR-8 = assay: Antitumor activity against human OVCAR8 cells
IGROV-1 = assay: Antitumor activity against human IGROV1 cells
T47D = assay: Antitumor activity against human T47D cells
CCRF-CEM = assay: Antitumor activity against human CCRF-CEM cells
[1] = Antitumor activity against human Hs 578T cells
M14 = assay: Antitumor activity against human M14 cells
EKVX = assay: Antitumor activity against human EKVX cells
[2] = read-out: pLC50 (the source's name) (converted)

`C#C[C@@H](O)/C=C/CCCCCCCCC/C=C\CCCCCC` gave a CC50 (SNB-19; [2]) of 151 nM, a TGI (SNB-19; read-out: pTGI (converted)) of 89.1 nM and a GI50 (SK-OV-3) of 61.7 nM. The CC50 (SK-OV-3; [2]) was 158 nM, the TGI (SK-OV-3; read-out: pTGI (converted)) was 100 nM and the GI50 (U-251) was 40.7 nM. The CC50 (U-251; [2]) was 138 nM, the TGI (U-251; read-out: pTGI (converted)) was 74.1 nM and the GI50 (RXF 393) was 33.1 nM. The CC50 (RXF 393; [2]) was 132 nM, the TGI (RXF 393; read-out: pTGI (converted)) was 66.1 nM and the GI50 (UACC-62) was 38.9 nM. The CC50 (UACC-62; [2]) was 135 nM, the TGI (UACC-62; read-out: pTGI (converted)) was 72.4 nM and the GI50 (ACHN) was 45.7 nM. The CC50 (ACHN; [2]) was 141 nM, the TGI (ACHN; read-out: pTGI (converted)) was 79.4 nM and the GI50 (NCI-H23) was 13.5 nM. It also gave a CC50 (NCI-H23; [2]) of 110 nM, a TGI (NCI-H23; read-out: pTGI (converted)) of 45.7 nM and a GI50 (BT-549) of 38.9 nM. For the same compound, the CC50 (BT-549; [2]) was 135 nM, the TGI (BT-549; read-out: pTGI (converted)) was 72.4 nM and the GI50 (SF-539) was 44.7 nM. The CC50 (SF-539; [2]) was 141 nM, the TGI (SF-539; read-out: pTGI (converted)) was 79.4 nM and the GI50 (SF-295) was 44.7 nM. For the same compound, the CC50 (SF-295; [2]) was 145 nM, the TGI (SF-295; read-out: pTGI (converted)) was 79.4 nM and the GI50 (SN12C) was 28.8 nM. For the same compound, the CC50 (SN12C; [2]) was 123 nM, the TGI (SN12C; read-out: pTGI (converted)) was 58.9 nM and the GI50 (MDA-N) was 25.1 nM. It also gave a CC50 (MDA-N; [2]) of 115 nM, a TGI (MDA-N; read-out: pTGI (converted)) of 53.7 nM and a GI50 (HCT-116) of 25.1 nM. The CC50 (HCT-116; [2]) was 117 nM, the TGI (HCT-116; read-out: pTGI (converted)) was 55 nM and the GI50 (KM12) was 37.1 nM. It also gave a CC50 (KM12; [2]) of 132 nM, a TGI (KM12; read-out: pTGI) of 70.8 nM and a GI50 (Malme-3M) of 6.31 nM. The CC50 (Malme-3M; [2]) was 72.4 nM, the TGI (Malme-3M; read-out: pTGI (converted)) was 20.4 nM and the GI50 (A498) was 58.9 nM. For the same compound, the CC50 (A498; [2]) was 155 nM, the TGI (A498; read-out: pTGI (converted)) was 95.5 nM and the GI50 (HCC 2998) was 43.6 nM. It also gave a CC50 (HCC 2998; [2]) of 141 nM, a TGI (HCC 2998; read-out: pTGI (converted)) of 79.4 nM and a GI50 (HT-29) of 30.9 nM. For the same compound, the CC50 (HT-29; [2]) was 138 nM, the TGI (HT-29; read-out: pTGI (converted)) was 66.1 nM and the GI50 (DU-145) was 47.9 nM. The CC50 (DU-145; [2]) was 145 nM, the TGI (DU-145; read-out: pTGI (converted)) was 83.2 nM and the GI50 (HOP-62) was 52.5 nM. The CC50 (HOP-62; [2]) was 151 nM, the TGI (HOP-62; read-out: pTGI (converted)) was 89.1 nM and the GI50 (COLO 205) was 43.6 nM. For the same compound, the CC50 (COLO 205; [2]) was 141 nM, the TGI (COLO 205; read-out: pTGI (converted)) was 79.4 nM and the GI50 (HOP-92) was 46.8 nM. The CC50 (HOP-92; [2]) was 145 nM, the TGI (HOP-92; read-out: pTGI (converted)) was 83.2 nM and the GI50 (K562) was 30.9 nM. It also gave a CC50 (K562; [2]) of 155 nM, a TGI (K562; read-out: pTGI (converted)) of 69.2 nM and a GI50 (OVCAR-8) of 37.1 nM. The CC50 (OVCAR-8; [2]) was 132 nM, the TGI (OVCAR-8; read-out: pTGI) was 70.8 nM and the GI50 (IGROV-1) was 0.562 nM. For the same compound, the CC50 (IGROV-1; [2]) was 2.19 nM, the TGI (IGROV-1; read-out: pTGI (converted)) was 1.12 nM and the GI50 (T47D) was 6.31 nM. For the same compound, the CC50 (T47D; [2]) was 115 nM, the TGI (T47D; read-out: pTGI (converted)) was 42.7 nM and the GI50 (CCRF-CEM) was 0.631 nM. The CC50 (CCRF-CEM; [2]) was 61.7 nM, the TGI (CCRF-CEM; read-out: pTGI (converted)) was 1.55 nM and the GI50 [1] was 44.7 nM. The CC50 [1, 2] was 170 nM, the TGI ([1]; read-out: pTGI (converted)) was 87.1 nM and the GI50 (M14) was 8.32 nM. It also gave a CC50 (M14; [2]) of 100 nM, a TGI (M14; read-out: pTGI (converted)) of 39.8 nM and a GI50 (EKVX) of 46.8 nM. The CC50 (EKVX; [2]) was 145 nM and the TGI (EKVX; read-out: pTGI (converted)) was 81.3 nM.

From ChEMBL document CHEMBL1150095, “Antitumor activity and stereochemistry of acetylenic alcohols from the sponge Cribrochalina vasculum” (1995)
